Assays:
human osteoblastic cells = experiment: DDT-induced uncoupling, Lucifer Yellow dye transfer in human osteoblastic cells; format: cell-based; conditions: 10^-8 mol/l, 10 minutes, after DDT 13 µM for 60 minutes
Description: Human osteoblast cells: Cells were isolated from human bone marrow obtained by puncture of the posterior iliac spine of healthy volunteers (aged 20-36): 10-15 ml marrow material was collected in 15 ml PBS + Ca, Mg (Life Technologies, Cat.No. 14040) with 100 U/ml Heparin (Sigma, Cat.No. H-3149). The mononuclear fraction of the marrow was isolated on a Lymphoprep gradient (Nycomed Pharma, Cat.No. 1001967), by centrifugation at 2200 rpm for 30 min. After harvesting, the mononuclear fraction was washed once with culture medium and centrifuged at 1800 rpm for 10 min. Subsequently cells were counted and plated in culture medium at 8x10^6 cells/100 mm dish. hOB medium (all reagents obtained from Life Technologies): MEM w/o Phenol Red w/ Glutamax (Cat.No. 041-93013) supplemented with 10% heat inactivated fetal calf serum (Cat.No. 10106) and 0.1% Penicillin/Streptomycin (Cat.No. 15140). Medium was changed the following day and the cells were cultured at 37°C in 5%CO2 with medium change every 7 days. After 3-4 weeks of culture the cells had reached 70% confluence. The medium was then supplemented with 100 nM Dexamethasone (Sigma, Cat.No. D-4902) for 7 days. Cells were then plated for video imaging experiments: a 25 mm #1 glass coverslip was placed in a 35 mm dish (or each well of a 6-well multidish), cells were plated at 2.5x10^5 cells/coverslip and cultured for 2-3 days before use. […]

[1] = test system: phosphoinositol turnover in rat primary cardiomyocytes; experiment: Phosphoinositol turnover in primary cardiomyocyte cultures; format: cell-based; conditions: for EC50: enhancement of phospho-inositol turnover
Description: Neonatal Wistar rats (1-2 days old) are used. Hank's calcium- and magnesium-free balanced salt solution, buffered with 10 mM HEPES is used for washing during cell separation procedures. The hearts are excised, the ventricles isolated and the tissue cut into small pieces. The myocardial cells are isolated by stepwise enzymatic degradation with collagenase 0.05%, as described by ^[35]. After repeated rounds of centrifugation and washing, the precipitated cells are resuspended in culture medium M199 with Earle's salt, 10% NCS, penicillin (75 U/mL), and streptomycin (75 U/mL) and pre-plated in a Petri dish for 90 minutes. The non-adherent cells are collected in the culture medium and plated in multidishes at 2.5*10^5 cells/well. The cultures are kept in a water-saturated CO2-incubator at 37°C. The cardiomyocyte cultures are used for analyses after 6-7 days.
Cardiomyocyte cultures are incubated for 48 hours in culture medium containing 4 µCi/mL myo-[2-^3H]inositol to label the inositol phospholipids. On the day of analysis the medium is replaced by a buffer solution containing lithium and incubated at 37°C, as described by Meier et al. ^[36]. After at least five minutes this buffer is replaced by the same volume of buffer containing test compound and incubated for exactly 20 minutes. The reaction is stopped by rapid replacement of the buffer by ice cold 4%v/v perchloric acid (PCA) and incubation for at least 20 minutes at 0°C. The PCA-extract is neutralised and the [^3H]inosltol phosphates are separated by anion-exchange chromatography using Amprep™ columns containing 100 mg SAX Quaternary amine. The [^3H]inositol mono-phosphates are eluted and radioactivity in the fraction measured by liquid scintillation counting.
Before adding test substances to the cultures, the cells are depleted of glucose and oxygen by incubating them in a N2-atmosphere in glucose-free lithium-buffer for 10 minutes at 37°C. Control cells are incubated likewise only at normal atmospheric conditions and in a buffer containing glucose.

human osteoblast = experiment: Lucifer Yellow microinjection dye transfer, human osteoblasts; format: cell-based; conditions: 10 minutes, after 48 hours hypoxia 3-6% O2 (7 cells before)
Description: Human osteblast cells (hOB): Cells were isolated from human bone marrow obtained by puncture of the posterior iliac spine of healthy volunteers (aged 20-36): 10-15 ml marrow material was collected in 15 ml PBS+Ca,Mg (Life Technologies, Cat.No. 14040) with 100 U/ml Heparin (Sigma, Cat.No. H-3149). The mononuclear fraction of the marrow was isolated on a Lymphoprep gradient (Nycomed Pharma, Cat.No. 1001967), by centrifugation at 2200 rpm for 30 min. After harvesting, the mononuclear fraction was washed once with culture medium and centrifuged at 1800 rpm for 10 min. Subsequently cells were counted and plated in culture medium at 8x10^6 cells/100 mm dish. hOB medium (all reagents obtained from Life Technologies): MEM w/o Phenol Red w/ Glutamax (Cat.No. 041-93013) supplemented with 10% heat inactivated fetal calf serum (Cat.No. 10106) and 0.1% Penicillin/Streptomycin (Cat.No. 15140). Medium was changed the following day and the cells were cultured at 37°C in 5%CO2 with medium change every 7 days. After 3-4 weeks of culture the cells had reached 70% confluence. The medium was then supplemented with 100 nM Dexamethasone (Sigma, Cat.No. D-4902) for 7 days. Cells were then plated for video imaging experiments: a 25 mm #1 glass coverslip was
placed in a 35 mm dish (or each well of a 6-well multidish), cells were plated at 2.5×10^5 cells/coverslip and cultured for 2-3 days before use. […]

[2] = test system: phosphoinositol turnover in rat primary cardiomyocytes; conditions: oxygen and glucose deprivation (untreated app. 50%); conference abstract; cited from earlier work
[3] = test system: ventricular reentry arrhytmias; experiment: Ventricular reentry arrhythmias in dogs after coronary artery occlusion; format: in vivo; conditions: after the lowest i.v. dose (bolus: 0.1 µg/kg; infusion: 2 ng/kg/min), after CAO
Description: Three dogs were studied in the anesthetized, open chest state to facilitate electrode placement for mapping. α-chloralose was given as a bolus (200 mg/kg) and then a constant Infusion at 8 mg/kg/hr (dissolved in polyethylene glycol, MW=200). The femoral vein and artery was cannulated for administration of fluid and drugs and for measurement of ascending aortic pressure, respectively.
The sinus node was clamped and the atrial appendage was paced with a programmable stimulator with constant current outputs at two times diastolic threshold. Pacing rate was ≥200 b/min to control heart rates. […] Late ventricular diastolic threshold was measured during each intervention; the pacing current was four times threshold.
Test sites were chosen along the shaft of 16 pole needles (J. Kassell, Fayetteville, NC); each pole completely surrounds the needle shaft to prevent directionality of needle orientation from recording of adjacent Purkinje strands. Six bipolar electrograms (1 mm spacing) were recorded sequentially down the shaft of the needle by amplifying up to 1000 times, filtering from 3-1300 Hz and recording via oscilloscope during atrial pacing. Four intramural electrograms are recorded on each multipolar needle. […] Inter-needle distance measured on epicardium varies over 6-10 mm in dogs weighing 12-16 kg. […]

In the case of “Ac-D-Tyr-D-Pro-D-4Hyp-Gly-D-Ala-Gly-NH2 [Compound 2]”, the “cell-to-cell dye transfer, median” value (human osteoblastic cells) is reported as 8.3 cells, the “increase in phospho-inositol turnover compared with noradrenaline alone” value ([1]; 100 nM + noradrenaline (300 nM), anoxia and glucose deprivation) is reported as “about 70%” and the “effect on noradrenaline (300 nM) induced increase in phospho-inositol turnover” value ([1]; 100 nM, control conditions) is reported as “had no further effect”. The EC50 ([1]; Glucose and oxygen deprivation) was 10 nM, the EC50 ([1]; Normal conditions) was 10 nM and the “dye transfer (number of cells containing Lucifer Yellow)” value (human osteoblast) was 9 cells. For the same substance, the “noradrenalin-induced PI turnover, % of the normal level” value [2] was about 90% and the “inducibility of epicardial reentry VT” value [3] was “VT was no longer inducible”.

— EP1370276B1, “INTERCELLULAR COMMUNICATION FACILITATING COMPOUNDS AND THEIR MEDICAL USE” (Zealand Pharma A/S, priority 2001, dated 2002)
